From patent US6852686B2, “Methods for ameliorating icthyosiform skin diseases” (The United States of America as represented by the …, priority 1999, dated 2005)
Entries after “also recorded” stand apart in the source; their conditions may differ.

Experiments:
[1] = biological target: T1, TGase 1 (Homo sapiens, UniProt P22735); test: Lipid Z esterification of involucrin by TGase 1 on SLV; format: biochemical; conditions: for involucrin-lipid adduct formation by TGase 1 on SLV membranes: ceramide incorporated in SLV
T1 construct: Recombinant full-length human TGase 1 and TGase 3 enzymes were expressed in Sf9 cells by the BaculoGold system; made in house; host or cells: Sf9 insect cells, BaculoGold baculovirus system, pVL1392 vector
T1 sequence (P22735 1-817): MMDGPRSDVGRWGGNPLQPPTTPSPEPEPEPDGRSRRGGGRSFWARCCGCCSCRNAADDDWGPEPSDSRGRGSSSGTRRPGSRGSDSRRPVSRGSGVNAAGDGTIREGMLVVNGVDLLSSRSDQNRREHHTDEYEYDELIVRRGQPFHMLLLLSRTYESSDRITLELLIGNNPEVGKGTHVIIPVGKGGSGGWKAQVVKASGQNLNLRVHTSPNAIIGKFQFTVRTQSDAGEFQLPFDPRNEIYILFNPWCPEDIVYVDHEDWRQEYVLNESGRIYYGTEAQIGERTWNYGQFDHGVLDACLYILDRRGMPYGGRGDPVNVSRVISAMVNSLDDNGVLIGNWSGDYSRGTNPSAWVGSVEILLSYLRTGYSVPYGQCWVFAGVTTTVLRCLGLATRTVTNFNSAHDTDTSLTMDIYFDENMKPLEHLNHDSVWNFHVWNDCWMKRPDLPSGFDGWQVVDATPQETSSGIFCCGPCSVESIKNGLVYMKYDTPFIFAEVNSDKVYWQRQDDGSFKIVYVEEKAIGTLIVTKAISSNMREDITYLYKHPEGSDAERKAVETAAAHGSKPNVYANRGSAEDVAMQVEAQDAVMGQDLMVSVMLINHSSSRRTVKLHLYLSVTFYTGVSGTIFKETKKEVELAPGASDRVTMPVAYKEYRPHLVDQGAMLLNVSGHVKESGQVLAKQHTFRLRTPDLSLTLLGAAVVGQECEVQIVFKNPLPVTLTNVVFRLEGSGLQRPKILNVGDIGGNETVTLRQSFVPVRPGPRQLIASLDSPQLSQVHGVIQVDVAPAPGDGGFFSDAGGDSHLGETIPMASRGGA
Description: A mixture of 54 mol % dimyristoyl-phosphatidylcholine, 15 mol % dipalmitoyl-phosphatidylserine, 30 mol % cholesterol (all from Sigma, St. Louis, Mo.) and 1 mol % lipid Z was made in chloroform: methanol (9:1). This solution was dried down, taken up in aqueous buffer and dispersed by sonication as before (Nemes et al., J. Biol. Chem., 274: in press (1999)). The SLV suspension was equipped with TGase 1 enzyme by incubation at 37° C. for 15 min prior to adding substrates.
The reactions were stopped by the addition of EDTA to 10 mM.
Following reaction, 0.1 ml 20% SDS in water was added to the samples and the mixture was vortexed. This mixture was precipitated and washed three times with acetone-triethylamine-acetic acid (90:5:5) to remove the SDS and the unbound lipids (Konigsberg, W. H. and L. Henderson, Meth. Enzymol., 91: 254-259 (1983), herein expressly incorporated by reference in its entirety). After further washing with acetone the pellet was dried under vacuum and redissolved in 50 mM Tris-HCl (pH 7.5). Resolubilized protein was digested for 16 h with 2 mol % modified trypsin (Boehringer Mannheim). Peptides were resolved on a 250×2 mm PrimesphereC4 HPLC column (Phenomenex) and separated using a gradient elution from 75% buffer A (0.1% TFA in water) to 75% buffer B (50% 2-propanol in acetonitrile) in 40 min. Under these conditions, lipo-peptides were retarded but free peptides elute with the solvent front (Marekov, L. N. and P. M. Steinert, J. Biol. Chem., 273: 17763-17770 (1998), herein expressly incorporated by reference in its entirety).
Amino acid analysis of hydrolyzed samples (5.7 N HCl at 110° C. for 24 h in vacuo) was used to routinely measure amounts of lipo-peptides. Aliquots of isolated lipo-peptide peaks were attached to a solid support for sequencing (Marekov, L. N. and P. M. Steinert, J. Biol. Chem., 273: 17763-17770 (1998), herein expressly incorporated by reference in its entirety). Saponification of lipo-peptides was done with 1 N KOH in 80% methanol for 2 h at 37° C., after which the solution was acidified, dried and peptides were recovered by HPLC on a C18 column.

[2] = test system: synthetic lipid vesicles (SLV); test: Membrane association (binding) to synthetic lipid vesicles, SLV pelleted by ultracentrifugation; conditions: for effect on Ca++-induced binding of involucrin to SLVs: added to buffer, SLVs with 15 mol % PS; for effect on involucrin binding to SLV when substituted for PS: SLV containing 8% PS plus 0-20% of the anionic phospholipid; for binding to SLV: SLV with 0 or 15% PS, with or without free Ca++
Description: Mixtures of dipalmitoyl-phosphatidylcholine, cholesterol, dipalmitoyl-phosphatidylserine (PS) and other lipids where indicated (all from Sigma, St. Louis, Mo.) were made in chloroform-methanol (95:5). In all cases, the mixtures contained 30% cholesterol. When the amounts of PS or other individual components were varied, phosphatidylcholine was added to make the mixture to 100%. Mixtures were made in 0.5 ml and contained 10 μmol of total lipids. The solvent was flushed away under a stream of N2, dried further under high vacuum for 4 h and then resuspended by vortexing in 0.5 ml of a buffer containing 50 mM Tris-Cl (pH 8.0), 100 mM NaCl, 3 mM NaN3, 5 mM DTT, and 200 mM sucrose. The mixture was sonicated on ice five times each for 1 min using a Branson 250 sonifier with micro probe tip, and allowed to stand at 23° C. to facilitate assembly of SLV. After 1 h the SLV were diluted with 0.5 ml of the above buffer without sucrose, and 200 μl aliquots were centrifuged at 100,000× g for 30 min in a Beckman Airfuge using the A-10 rotor. The top 175 μl was removed, and the pellet resuspended in another 150 μl of sucrose-free buffer. The final stock concentration was 11 μmol/ml.
In all cases, the buffer contained 50 mM Tris-HCl (pH 8.0), 100 mM NaCl, 1 mM DTT, 3 mM NaN3, and other additives where noted. Some mixtures also contained 1 mM CaCl2 or 2 mM EDTA. After mixing, the samples were centrifuged for 45 min at 100,000× g, and the protein content from 50 μl of supernatant was determined by amino acid analysis after acid hydrolysis. Data were usually not corrected for loss of SLV lipids, as in control experiments, cumulated losses were <4% as assayed by ^14C-phosphatidylcholine tracer, and thus neglected from the calculations.
The Ca^++ concentrations in the μM range were set by buffering free Ca^++ with chelators The desired Ca^++/chelator ratios were calculated by the WinMaxC 1.7 computer program (Bers, et al., Methods in Cell Biology Vol 40: A Practical Guide to the Study of Ca^2+ in Living Cells, Nuccitelli, R., ed., pp. 1-327 (1994), herein expressly incorporated by reference in its entirety), and were made by adding the required amounts of 1 M CaCl2 to 0.2 M stock solutions of the following chelators at pH 8.0. Final chelator concentrations in the samples were 10 mM in all cases. Sodium citrate was the chelator for the 20-500 μM Ca^++ range; sodium nitrilotriacetate for the 1-20 μM Ca^++ range; and sodium 1,2-bis(aminophenoxy)ethane-N,N,N′,N′ tetraacetate for the 0.1-1 μM Ca^++ range.

NCCCCN [Putrescine, putrescine]
inhibition of ester formation of each reactive Gln residue ([1]; 1 mM putrescine included in the reaction): 2-3 fold | reduction in ester yields ([1]; 20 mM putrescine added at 45 min, compared to 1 h levels): significantly (p<0.01) reduced; also recorded: about a two-fold and time dependent reduction

NCCSSCCN [cystamine]
inhibition of lipid Z esterification ([1]; 20 mM cystamine): significantly reduced; also recorded: completely inhibited

O=C(O)CN(CCN(CC(=O)O)CC(=O)O)CC(=O)O [EDTA]
inhibition of lipid Z esterification ([1]; EDTA present (5 mM elsewhere in the source)): no lipo-peptides were recovered; also recorded: completely inhibited | effect on Ca++-induced binding of involucrin to SLVs [2]: completely reversible

16-hydroxypalmitoylsphingosine
involucrin-lipid adduct formation by TGase 1 on SLV membranes [1]: no involucrin-adduct formation was observed

[Mg+2] [magnesium]
effect on Ca++-induced binding of involucrin to SLVs [2]: did not support the binding

O=C(O)CN(CCOCCOCCN(CC(=O)O)CC(=O)O)CC(=O)O [EGTA, reference compound]
effect on Ca++-induced binding of involucrin to SLVs [2]: completely reversible

phosphatidyl glycerol [reference compound]
effect on involucrin binding to SLV when substituted for PS [2]: did not enhance binding

palmitoylsphingosine
involucrin-lipid adduct formation by TGase 1 on SLV membranes [1]: no involucrin-adduct formation was observed

phosphatidyl inositol [reference compound]
effect on involucrin binding to SLV when substituted for PS [2]: did not enhance binding

phosphatidic acid [reference compound]
effect on involucrin binding to SLV when substituted for PS [2]: did not enhance binding

CCCCCCO [1-hexanol]
inhibition of formation of lipid Z ester ([1]; up to 2% 1-hexanol): did not significantly (p=0.05) inhibit

B1: loricrin: recombinant human CE protein (protein, UniProt P23490 1-312, looked up)
Loricrin: MSYQKKQPTPQPPVDCVKTSGGGGGGGGSGGGGCGFFGGGGSGGGSSGSGCGYSGGGGYSGGGCGGGSSGGGGGGGIGGCGGGSGGSVKYSGGGGSSGGGSGCFSSGGGGSGCFSSGGGGSSGGGSGCFSSGGGGSSGGGSGCFSSGGGGFSGQAVQCQSYGGVSSGGSSGGGSGCFSSGGGGGSVCGYSGGGSGCGGGSSGGSGSGYVSSQQVTQTSCAPQPSYGGGSSGGGGSGGSGCFSSGGGGGSSGCGGGSSGIGSGCIISGGGSVCGGGSSGGGGGGSSVGGSGSGKGVPICHQTQQKQAPTWPSK
binding to SLV [2]: unable to directly attach to SLV

B2: TGase 3: recombinant full-length human TGase 3, activated with dispase (protein, UniProt Q08188 1-693, looked up)
chain: MAALGVQSINWQTAFNRQAHHTDKFSSQELILRRGQNFQVLMIMNKGLGSNERLEFIVSTGPYPSESAMTKAVFPLSNGSSGGWSAVLQASNGNTLTISISSPASAPIGRYTMALQIFSQGGISSVKLGTFILLFNPWLNVDSVFMGNHAEREEYVQEDAGIIFVGSTNRIGMIGWNFGQFEEDILSICLSILDRSLNFRRDAATDVASRNDPKYVGRVLSAMINSNDDNGVLAGNWSGTYTGGRDPRSWNGSVEILKNWKKSGFSPVRYGQCWVFAGTLNTALRSLGIPSRVITNFNSAHDTDRNLSVDVYYDPMGNPLDKGSDSVWNFHVWNEGWFVRSDLGPSYGGWQVLDATPQERSQGVFQCGPASVIGVREGDVQLNFDMPFIFAEVNADRITWLYDNTTGKQWKNSVNSHTIGRYISTKAVGSNARMDVTDKYKYPEGSDQERQVFQKALGKLKPNTPFAATSSMGLETEEQEPSIIGKLKVAGMLAVGKEVNLVLLLKNLSRDTKTVTVNMTAWTIIYNGTLVHEVWKDSATMSLDPEEEAEHPIKISYAQYEKYLKSDNMIRITAVCKVPDESEVVVERDIILDNPTLTLEVLNEARVRKPVNVQMLFSNPLDEPVRDCVLMVEGSGLLLGNLKIDVPTLGPKEGSRVRFDILPSRSGTKQLLADFSCNKFPAIKAMLSIDVAE
modifications: full-length activated by dispase cleavage
binding to SLV [2]: unable to associate with an SLV of any composition tested
